Calls of active or inactive are those of the source. The calls are words filed in the database; no cut-off is given here.
What was measured:
[1] = molecular target: DNA polymerase beta (Homo sapiens, UniProt P06746); test: Inhibition of DNA polymerase beta lyase activity
[2] = molecular target: T1, M-phase inducer phosphatase 2 (Homo sapiens) (UniProt P30305); test: (§1) Inhibition of GST-fused human recombinant Cdc25B2 (275-539) catalytic domain
T1 sequence (whole entry): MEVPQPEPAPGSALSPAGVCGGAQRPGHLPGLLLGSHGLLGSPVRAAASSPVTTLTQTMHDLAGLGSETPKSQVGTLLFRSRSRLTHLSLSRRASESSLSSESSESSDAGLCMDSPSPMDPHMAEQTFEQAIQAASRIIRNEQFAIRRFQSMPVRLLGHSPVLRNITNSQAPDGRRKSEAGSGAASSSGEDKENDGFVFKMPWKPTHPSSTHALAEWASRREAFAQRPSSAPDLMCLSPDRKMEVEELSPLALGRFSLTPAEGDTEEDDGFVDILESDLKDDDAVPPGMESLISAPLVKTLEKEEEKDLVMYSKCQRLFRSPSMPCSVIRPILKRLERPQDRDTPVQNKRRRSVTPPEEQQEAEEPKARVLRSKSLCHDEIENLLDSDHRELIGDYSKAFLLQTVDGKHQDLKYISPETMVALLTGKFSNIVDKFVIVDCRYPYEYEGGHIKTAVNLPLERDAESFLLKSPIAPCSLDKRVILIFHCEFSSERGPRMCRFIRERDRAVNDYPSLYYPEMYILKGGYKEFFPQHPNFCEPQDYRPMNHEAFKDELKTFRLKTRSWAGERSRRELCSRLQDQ

[3] = test system: A2780; test: Cytotoxicity against human A2780 cells; format: functional, cell-based
[4] = molecular target: T2, M-phase inducer phosphatase 2 (Homo sapiens, UniProt P30305); test: as §1
T2 sequence (P30305 whole entry): T1 sequence (whole entry)

## O=c1ccn([C@H]2C[C@H](O)[C@@H](CO)O2)c(=O)[nH]1
[1]
  Activity: inactive
[2]
  Activity: inactive
[3]
  Activity: inactive

## C=C1CCC[C@H]2[C@](C)(Cc3cc(C(=O)OC)ccc3O)[C@@H](C)CC[C@]12C
[1]
  Activity: inactive
[2]
  Activity: inactive
[3]
  Activity: inactive

## C=C1CCC[C@H]2[C@](C)(CC3=C(O)C(=O)C=C(OC)C3=O)[C@@H](C)CC[C@]12C [ILIMAQUINONE]
[1]
  IC50: 45.2 µM
[4]
  IC50: 92 µM
[3]
  IC50: 10.9 µM

## C=C1CCC[C@H]2[C@](C)(Cc3cc(C(=O)OC)ccc3OCC=C(C)C)[C@@H](C)CC[C@]12C
[1]
  Activity: inactive
[2]
  Activity: inactive
[3]
  Activity: inactive
